Data on one cell line can be found in the supplement of paper PMC10307832.

Assay in all cases: relative viability (nuclei count vs DMSO), 5 days (fraction); higher = more cells survive
Compound in one assay: CCCS(=O)(=O)Nc1ccc(F)c(C(=O)c2c[nH]c3ncc(-c4ccc(Cl)cc4)cc23)c1F [Vemurafenib]
In short, it runs like this:
(§1)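 Vehicle-anchored 1536-well plates of lung cancer cell lines, held overnight at 37 °C, were pinned with five library-drug doses (not always all listed) spaced by √10. No medium change followed over the next 5 days, after which the cells were fixed, permeabilised and Hoechst-stained together and imaged at 4×. Nuclei were counted with MetaXpress, and viability is treated-well nuclei over vehicle-well nuclei, taken as a median across plates. Plates passed with control CV below 25% and at least one doubling.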

Compound in a further assay: COc1cccc2cc(-c3nc([C@H]4CC[C@H](C(=O)O)CC4)n4ncnc(N)c34)[nH]c12 [OSI-027]
In short, it runs like this:
as §1

Compound in the next assay: Cc1nc(NC(=O)N2CCC[C@H]2C(N)=O)sc1-c1ccnc(C(C)(C)C(F)(F)F)c1 [Alpelisib]
The method in brief:
as §1

With UMC-11, the relative viability in the assay with Vemurafenib (0.03162 µM) was 0.923; with Vemurafenib (0.1 µM) it was 1.02; with Vemurafenib (0.3162 µM), 0.876; with Vemurafenib (1 µM) it was 0.777; in the assay with OSI-027 (0.01 µM), 0.913; with OSI-027 (0.03162 µM), 0.916. Also, the relative viability in the assay with OSI-027 (0.1 µM) is 0.808; with OSI-027 (0.3162 µM), 0.704; with OSI-027 (0.5 µM, anchor plate) it was 0.49; with OSI-027 (1 µM) it was 0.561; in the assay with Alpelisib (0.04 µM) it was 0.937; with Alpelisib (0.1265 µM), 0.954. Moreover, the relative viability with Alpelisib (0.4 µM) was found to be 1.01; in the assay with Alpelisib (1.265 µM) it was 0.956; with Alpelisib (2 µM, anchor plate), 1; with Alpelisib (4 µM), 0.826.
